Assay results taken from patent US20070116781A1, “Hydrogen Cyanamide Pesticide Formulations” (priority 2005, published 2007).

What was measured:
morningglory = experiment: Herbicidal activity, phosphate-free cyanamide and propionic acid, post-emergence, uncovered pots; type: in vivo, Ipomoea spp.; conditions: for Weeds Per Pot: Morningglory: cyanamide 150 mg/kg soil
Source text: (§1) The procedures in this example differed from those of Example 2, however, by the use of hydrogen cyanamide crystals free of phosphate ion to prepare the aqueous hydrogen cyanamide solution, by the use of post-emergence application, and by the omission of any covering of the pots during any part of the test. Observations were made for total weed growth, and individual observations were also made for yellow nutsedge, crabgrass, sicklepod, and momingglory. Stock solutions of hydrogen cyanamide at 1.25% by weight and propionic acid at 5.0% by weight, both in water, were prepared as before, except that the hydrogen cyanamide solution, as noted above, was prepared by dissolving hydrogen cyanamide crystals in water in the absence of phosphate ion. […] The weeds were allowed to grow for three weeks before the treatment chemicals were applied. […] Data analyses were performed in the same manner as Examples 1 and 2. Table IX lists the results in weeds per pot for all weeds, Table X for yellow nutsedge, Table XI for crabgrass, Table XII for sicklepod, and Table XIII for morningglory, all both with propionic acid alone at various application rates and with […]

crabgrass = experiment: as above; type: in vivo, Digitaria sanguinalis; conditions: for Weeds Per Pot: Crabgrass: cyanamide 150 mg/kg soil
Source text: as §1, with “application” for “application rates and with”

spiral nematodes = experiment: Nematicidal activity in covered pots of naturally infested silt loam, soybean planted after 12 days; type: in vivo, Helicotylenchus dihystera
Description: (§2) In this study, the soil was naturally infested with four species of nematodes, two of which were deleterious and two beneficial, and observations were made of both the nematode survival and the growth of the soybean plants.
(§3) Stock solutions of hydrogen cyanamide at 1.0% by weight and propionic acid at 5.0% by weight, both in water, were prepared, the hydrogen cyanamide from a phosphate-buffered 50% aqueous solution. Planting pots measuring 10 cm in diameter, each containing 1 kg of soil, were used. The soil was silt loam from a cotton field, pH 6.2, CEC<10 meq/100 g soil, organic matter<1.0%. The treatment chemicals were combined in various dilutions such that 100 mL of the combined dilutions contained the desired amount of each chemical for each test. The combined dilutions were then applied to the soil surface in each pot, at 100 mL of combined dilution per pot. The dilutions were selected to achieve target application rates expressed in milligrams of the treatment chemical per kilogram of soil, with 1 milligram of treatment chemical per kilogram of soil being approximately equal to 2 kilograms of the chemical per hectare of soil or 2 pounds of the chemical per acre of soil.
(§4) Immediately after the treatment chemicals were applied, each pot was covered by a thick (1.5 mil), clear, low-density polyethylene bag. After twelve days, the bags were removed and soil samples were taken from each pot for nematological analysis by the salad bowl technique of Rodriguez-Kabana, R., and M. H. Pope, Nematropica, 11: 175-186 (1981). The results of these analyses are listed in Table I as pre-plant test results. The results for the two deleterious nematodes are also shown as plots of the number of nematodes vs. the hydrogen cyanamide application rate in FIGS. 1 and 2.
(§5) After the polyethylene bags were removed, each pot was planted with Hutcheson soybean seeds at 5 seeds per pot, and the seeds were allowed to germinate and the plants to grow for 45 days. The resulting plants were then removed from the pots, the root systems were washed, and the number of plants in each pot was determined. The weights of both fresh shoots and roots were also determined as well as the shoot height and the relative health of the root system, using a subjective index. Soil samples were also collected, and the soil and roots were incubated to determine nematode populations. Treatments were arranged in randomized complete block design with seven replications per treatment, and statistical evaluation of the data was performed with analyses of variance (ANOVA) and standard regression procedures. Fischer's Least Significant Difference at p 0.05 was calculated when appropriate. The results of these tests are listed as final test results in Tables II, III, and IV, with nematode populations in the soil listed in Table II, the nematode populations in the root systems in Table III, and the plant and root parameters of the soybean shoots in Table IV.

reniform nematodes = experiment: as above; type: in vivo, Rotylenchulus reniformus
Description: as §2, §3, §4, §5

all weeds = experiment: Herbicidal activity, phosphate-free cyanamide and propionic acid, post-emergence, uncovered pots; type: in vivo; conditions: for Weeds Per Pot: All Weeds: cyanamide 150 mg/kg soil
Source text: as §1, with “application” for “application rates and with”

microbivorous nematodes = experiment: Effect on beneficial nematodes in covered pots of silt loam; type: in vivo
Description: as §2, §3, §4, §5

[1] = hydrogen cyanamide 125 mg/kg of soil alone, all intervals
[2] = 12 d after treatment, pre-plant, cyanamide 20 mg/kg soil
[3] = 12 d after treatment, pre-plant, cyanamide 40 mg/kg soil
[4] = 12 d after treatment, pre-plant, cyanamide 60 mg/kg soil
[5] = 12 d after treatment, pre-plant, cyanamide 80 mg/kg soil
[6] = 12 d after treatment, pre-plant, cyanamide 120 mg/kg soil
[7] = 57 d after treatment, 45 d after planting, cyanamide 20 mg/kg soil
[8] = 57 d after treatment, 45 d after planting, cyanamide 40 mg/kg soil
[9] = 57 d after treatment, 45 d after planting, cyanamide 60 mg/kg soil
[10] = 57 d after treatment, 45 d after planting, cyanamide 80 mg/kg soil
[11] = 57 d after treatment, 45 d after planting, cyanamide 120 mg/kg soil
[12] = 57 d after treatment, cyanamide 20 mg/kg soil
[13] = 57 d after treatment, cyanamide 40 mg/kg soil
[14] = 57 d after treatment, cyanamide 60 mg/kg soil
[15] = 57 d after treatment, cyanamide 80 mg/kg soil
[16] = 57 d after treatment, cyanamide 120 mg/kg soil

## N#CN [Cyanamide, hydrogen cyanamide]
morningglory; 6 d after treatment
  Weeds Per Pot: Morningglory: 3.3
morningglory; 13 d after treatment
  Weeds Per Pot: Morningglory: 2.7
morningglory; 20 d after treatment
  Weeds Per Pot: Morningglory: 2.9
morningglory; [1]
  Morningglory weeds per pot: about three or fewer momingglory weeds per pot
crabgrass; 6 d after treatment
  Weeds Per Pot: Crabgrass: 0
crabgrass; 13 d after treatment
  Weeds Per Pot: Crabgrass: 0.4
crabgrass; 20 d after treatment
  Weeds Per Pot: Crabgrass: 0.3
crabgrass; [1]
  Crabgrass weeds per pot: about one or fewer crabgrass weeds per pot
Spiral nematodes; [2]
  Surviving Nematodes: Spiral: 102 per 100 mL of soil
Spiral nematodes; [3]
  Surviving Nematodes: Spiral: 95 per 100 mL of soil
Spiral nematodes; [4]
  Surviving Nematodes: Spiral: 59 per 100 mL of soil
Spiral nematodes; [5]
  Surviving Nematodes: Spiral: 76 per 100 mL of soil
Spiral nematodes; [6]
  Surviving Nematodes: Spiral: 18 per 100 mL of soil
Spiral nematodes; [7]
  Surviving Nematodes: Spiral: 6.7 per 100 mL of soil
Spiral nematodes; [8]
  Surviving Nematodes: Spiral: 3.7 per 100 mL of soil
Spiral nematodes; [9]
  Surviving Nematodes: Spiral: 2.9 per 100 mL of soil
Spiral nematodes; [10]
  Surviving Nematodes: Spiral: 9.8 per 100 mL of soil
Spiral nematodes; [11]
  Surviving Nematodes: Spiral: 4.7 per 100 mL of soil
Spiral nematodes; [12]
  Surviving Nematodes in Root System: Spiral: 42.3 Per Pot
Spiral nematodes; [13]
  Surviving Nematodes in Root System: Spiral: 38.6 Per Pot
Spiral nematodes; [14]
  Surviving Nematodes in Root System: Spiral: 42 Per Pot
Spiral nematodes; [15]
  Surviving Nematodes in Root System: Spiral: 28 Per Pot
Spiral nematodes; [16]
  Surviving Nematodes in Root System: Spiral: 16 Per Pot
Reniform nematodes; [2]
  Surviving Nematodes: Reniform: 274 per 100 mL of soil
Reniform nematodes; [3]
  Surviving Nematodes: Reniform: 191 per 100 mL of soil
Reniform nematodes; [4]
  Surviving Nematodes: Reniform: 102 per 100 mL of soil
Reniform nematodes; [5]
  Surviving Nematodes: Reniform: 120 per 100 mL of soil
Reniform nematodes; [6]
  Surviving Nematodes: Reniform: 16 per 100 mL of soil
Reniform nematodes; [7]
  Surviving Nematodes: Reniform: 240 per 100 mL of soil
Reniform nematodes; [8]
  Surviving Nematodes: Reniform: 190 per 100 mL of soil
Reniform nematodes; [9]
  Surviving Nematodes: Reniform: 167 per 100 mL of soil
Reniform nematodes; [10]
  Surviving Nematodes: Reniform: 354 per 100 mL of soil
Reniform nematodes; [11]
  Surviving Nematodes: Reniform: 95 per 100 mL of soil
Reniform nematodes; [12]
  Surviving Nematodes in Root System: Reniform: 25.7 Per Pot
Reniform nematodes; [13]
  Surviving Nematodes in Root System: Reniform: 9.6 Per Pot
Reniform nematodes; [14]
  Surviving Nematodes in Root System: Reniform: 13.4 Per Pot
Reniform nematodes; [15]
  Surviving Nematodes in Root System: Reniform: 19.4 Per Pot
Reniform nematodes; [16]
  Surviving Nematodes in Root System: Reniform: 4.3 Per Pot
All weeds; 6 d after treatment
  Weeds Per Pot: All Weeds: 6.3
All weeds; 13 d after treatment
  Weeds Per Pot: All Weeds: 7.7
All weeds; 20 d after treatment
  Weeds Per Pot: All Weeds: 10.1
All weeds; [1]
  Total weeds per pot: less than ten total weeds per pot
Microbivorous nematodes; [2]
  Surviving Nematodes: Microbivorous: 92 per 100 mL of soil
Microbivorous nematodes; [3]
  Surviving Nematodes: Microbivorous: 86 per 100 mL of soil
Microbivorous nematodes; [4]
  Surviving Nematodes: Microbivorous: 96 per 100 mL of soil
Microbivorous nematodes; [5]
  Surviving Nematodes: Microbivorous: 144 per 100 mL of soil
Microbivorous nematodes; [6]
  Surviving Nematodes: Microbivorous: 75 per 100 mL of soil
Microbivorous nematodes; [7]
  Surviving Nematodes: Microbivorous: 132 per 100 mL of soil
Microbivorous nematodes; [8]
  Surviving Nematodes: Microbivorous: 121 per 100 mL of soil
Microbivorous nematodes; [9]
  Surviving Nematodes: Microbivorous: 78 per 100 mL of soil
Microbivorous nematodes; [10]
  Surviving Nematodes: Microbivorous: 99 per 100 mL of soil
Microbivorous nematodes; [11]
  Surviving Nematodes: Microbivorous: 52 per 100 mL of soil
Microbivorous nematodes; [12]
  Surviving Nematodes in Root System: Microbivorous: 176.9 Per Pot
Microbivorous nematodes; [13]
  Surviving Nematodes in Root System: Microbivorous: 126.9 Per Pot
Microbivorous nematodes; [14]
  Surviving Nematodes in Root System: Microbivorous: 118 Per Pot
Microbivorous nematodes; [15]
  Surviving Nematodes in Root System: Microbivorous: 113 Per Pot
Microbivorous nematodes; [16]
  Surviving Nematodes in Root System: Microbivorous: 123 Per Pot
